This note sets out measurements from patent publication US11981658B2, “Substituted aminopyridine compounds as EGFR inhibitors” (YUHAN CORPORATION, priority 2021, dated 2024).

One assay has as its target EGFR L858R/T790M/C797S (Homo sapiens, UniProt P00533, C797S/L858R/T790M). Description: Biochemical EGFR kinase inhibition assay (Lance Ultra TR-FRET), triple mutant L858R/T790M/C797S. In a few lines:
(§1)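 Kinase activity is measured by TR-FRET phosphopeptide detection. Compounds span 0.003 μM to 10 μM; the 1 h reaction at room temperature is quenched with EDTA, then labelled antibody (2 nM) is incubated 60 min before reading.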
On the technique in general: Time-resolved FRET reads energy transfer from a long-lived donor to a nearby acceptor.

Another assay concerns the target EGFR Del19/T790M/C797S (Homo sapiens, UniProt P00533, C797S/DEL746-750/T790M). Description: Biochemical EGFR kinase inhibition assay (Lance Ultra TR-FRET), triple mutant del19/T790M/C797S. In a few lines:
as §1

For a further assay, the target named is EGFR Del19/C797S (Homo sapiens, UniProt P00533, C797S/DEL746-750). Description: Biochemical EGFR kinase inhibition assay (Lance Ultra TR-FRET), double mutant del19/C797S. Put shortly:
as §1

A further assay has as its target EGFR wildtype (WT) (Homo sapiens, UniProt P00533). Description: Biochemical EGFR kinase inhibition assay (Lance Ultra TR-FRET), wildtype. In a few lines:
as §1

For the next assay, the target named is EGFR L858R/C797S (Homo sapiens, UniProt P00533, C797S/L858R). As to the kind of experiment: Biochemical EGFR kinase inhibition assay (Lance Ultra TR-FRET), double mutant L858R/C797S. Put shortly: as §1
Where [1] appears, read: IC50 L858R/T790M/C797S (nM), 100 μM ATP.
Setting [2] is: Km ATP, read-out: IC50 L858R/T790M/C797S (nM) Km ATP.
The mark [3] stands for this setting: IC50 Del19/T790M/C797S (nM), 100 μM ATP.
Where [4] appears, read: Km ATP, read-out: IC50 Del19/T790M/C797S (nM) Km ATP.
[5] abbreviates: IC50 Del19/C797S (nM), 100 μM ATP.
The mark [6] stands for this setting: Km ATP, read-out: IC50 Del19/C797S (nM) Km ATP.
Where [7] appears, read: Km ATP, read-out: IC50 WT (nM) Km ATP.
Setting [8] is: IC50 L858R/C797S (nM), 100 μM ATP.
[9] abbreviates: Km ATP, read-out: IC50 L858R/C797S (nM) Km ATP.

Like-named read-outs stand apart in the source and are kept apart here.

Sequence of EGFR Del19/C797S (P00533 with tags, fused parts or gaps DEL746-750/C797S): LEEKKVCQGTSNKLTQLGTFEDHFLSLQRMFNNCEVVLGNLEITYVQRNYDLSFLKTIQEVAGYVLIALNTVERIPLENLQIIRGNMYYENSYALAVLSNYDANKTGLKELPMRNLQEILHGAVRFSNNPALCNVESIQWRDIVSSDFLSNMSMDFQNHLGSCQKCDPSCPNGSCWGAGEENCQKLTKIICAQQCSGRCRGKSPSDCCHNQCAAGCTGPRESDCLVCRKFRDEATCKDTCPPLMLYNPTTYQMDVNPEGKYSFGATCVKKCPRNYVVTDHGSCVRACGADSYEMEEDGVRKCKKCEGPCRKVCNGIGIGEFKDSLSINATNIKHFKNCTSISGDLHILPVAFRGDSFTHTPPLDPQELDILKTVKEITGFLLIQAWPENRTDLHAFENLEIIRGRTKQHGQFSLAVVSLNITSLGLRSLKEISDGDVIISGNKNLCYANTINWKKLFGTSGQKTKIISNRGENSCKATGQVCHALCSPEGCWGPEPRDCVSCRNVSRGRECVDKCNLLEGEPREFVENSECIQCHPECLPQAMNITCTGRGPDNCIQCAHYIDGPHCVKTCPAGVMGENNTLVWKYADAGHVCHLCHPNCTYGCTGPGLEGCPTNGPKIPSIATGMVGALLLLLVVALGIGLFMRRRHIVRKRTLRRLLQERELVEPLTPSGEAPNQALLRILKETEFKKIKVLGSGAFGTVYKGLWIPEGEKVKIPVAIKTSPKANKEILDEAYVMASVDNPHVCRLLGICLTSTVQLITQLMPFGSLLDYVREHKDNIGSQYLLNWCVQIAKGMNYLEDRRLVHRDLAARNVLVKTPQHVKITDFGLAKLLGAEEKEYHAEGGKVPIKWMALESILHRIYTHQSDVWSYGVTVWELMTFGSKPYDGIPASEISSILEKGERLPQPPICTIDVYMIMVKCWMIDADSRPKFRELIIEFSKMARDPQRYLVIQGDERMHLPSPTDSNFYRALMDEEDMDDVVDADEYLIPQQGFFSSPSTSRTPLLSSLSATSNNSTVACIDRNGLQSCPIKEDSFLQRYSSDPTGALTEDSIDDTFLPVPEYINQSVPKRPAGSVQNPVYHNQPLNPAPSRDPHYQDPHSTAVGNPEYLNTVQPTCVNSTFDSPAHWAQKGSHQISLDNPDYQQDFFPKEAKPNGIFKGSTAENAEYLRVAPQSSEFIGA
Sequence of EGFR Del19/T790M/C797S (P00533 with tags, fused parts or gaps DEL746-750/T790M/C797S): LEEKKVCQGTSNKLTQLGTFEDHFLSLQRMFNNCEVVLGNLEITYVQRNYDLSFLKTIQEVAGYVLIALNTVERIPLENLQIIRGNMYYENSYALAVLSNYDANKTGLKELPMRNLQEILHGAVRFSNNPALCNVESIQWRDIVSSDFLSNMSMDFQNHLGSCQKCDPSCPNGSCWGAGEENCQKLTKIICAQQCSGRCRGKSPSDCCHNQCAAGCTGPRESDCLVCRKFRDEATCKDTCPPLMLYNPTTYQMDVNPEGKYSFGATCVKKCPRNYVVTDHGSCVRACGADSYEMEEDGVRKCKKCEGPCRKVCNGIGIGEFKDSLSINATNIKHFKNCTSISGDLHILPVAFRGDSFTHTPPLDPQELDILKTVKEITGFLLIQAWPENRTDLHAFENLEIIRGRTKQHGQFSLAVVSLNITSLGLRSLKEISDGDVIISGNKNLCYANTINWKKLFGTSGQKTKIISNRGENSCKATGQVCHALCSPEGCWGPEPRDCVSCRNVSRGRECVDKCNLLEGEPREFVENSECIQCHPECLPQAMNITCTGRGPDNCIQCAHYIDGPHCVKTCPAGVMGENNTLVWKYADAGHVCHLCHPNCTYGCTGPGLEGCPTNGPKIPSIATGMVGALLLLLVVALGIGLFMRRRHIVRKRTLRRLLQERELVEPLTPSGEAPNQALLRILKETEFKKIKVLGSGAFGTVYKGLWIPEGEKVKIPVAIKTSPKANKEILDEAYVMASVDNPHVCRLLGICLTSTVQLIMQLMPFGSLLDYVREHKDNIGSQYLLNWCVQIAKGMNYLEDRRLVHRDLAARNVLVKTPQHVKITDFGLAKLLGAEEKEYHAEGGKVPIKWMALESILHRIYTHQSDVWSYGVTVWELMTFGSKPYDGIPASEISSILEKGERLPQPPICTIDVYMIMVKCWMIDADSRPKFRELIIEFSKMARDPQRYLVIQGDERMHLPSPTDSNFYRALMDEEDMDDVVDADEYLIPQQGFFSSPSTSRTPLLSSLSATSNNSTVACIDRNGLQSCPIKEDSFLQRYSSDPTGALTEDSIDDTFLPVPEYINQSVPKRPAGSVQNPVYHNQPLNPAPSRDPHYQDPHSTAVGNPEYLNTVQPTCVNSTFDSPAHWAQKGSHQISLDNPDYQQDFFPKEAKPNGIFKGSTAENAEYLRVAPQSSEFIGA
Sequence of EGFR L858R/T790M/C797S (P00533 25-1210 T790M/C797S/L858R): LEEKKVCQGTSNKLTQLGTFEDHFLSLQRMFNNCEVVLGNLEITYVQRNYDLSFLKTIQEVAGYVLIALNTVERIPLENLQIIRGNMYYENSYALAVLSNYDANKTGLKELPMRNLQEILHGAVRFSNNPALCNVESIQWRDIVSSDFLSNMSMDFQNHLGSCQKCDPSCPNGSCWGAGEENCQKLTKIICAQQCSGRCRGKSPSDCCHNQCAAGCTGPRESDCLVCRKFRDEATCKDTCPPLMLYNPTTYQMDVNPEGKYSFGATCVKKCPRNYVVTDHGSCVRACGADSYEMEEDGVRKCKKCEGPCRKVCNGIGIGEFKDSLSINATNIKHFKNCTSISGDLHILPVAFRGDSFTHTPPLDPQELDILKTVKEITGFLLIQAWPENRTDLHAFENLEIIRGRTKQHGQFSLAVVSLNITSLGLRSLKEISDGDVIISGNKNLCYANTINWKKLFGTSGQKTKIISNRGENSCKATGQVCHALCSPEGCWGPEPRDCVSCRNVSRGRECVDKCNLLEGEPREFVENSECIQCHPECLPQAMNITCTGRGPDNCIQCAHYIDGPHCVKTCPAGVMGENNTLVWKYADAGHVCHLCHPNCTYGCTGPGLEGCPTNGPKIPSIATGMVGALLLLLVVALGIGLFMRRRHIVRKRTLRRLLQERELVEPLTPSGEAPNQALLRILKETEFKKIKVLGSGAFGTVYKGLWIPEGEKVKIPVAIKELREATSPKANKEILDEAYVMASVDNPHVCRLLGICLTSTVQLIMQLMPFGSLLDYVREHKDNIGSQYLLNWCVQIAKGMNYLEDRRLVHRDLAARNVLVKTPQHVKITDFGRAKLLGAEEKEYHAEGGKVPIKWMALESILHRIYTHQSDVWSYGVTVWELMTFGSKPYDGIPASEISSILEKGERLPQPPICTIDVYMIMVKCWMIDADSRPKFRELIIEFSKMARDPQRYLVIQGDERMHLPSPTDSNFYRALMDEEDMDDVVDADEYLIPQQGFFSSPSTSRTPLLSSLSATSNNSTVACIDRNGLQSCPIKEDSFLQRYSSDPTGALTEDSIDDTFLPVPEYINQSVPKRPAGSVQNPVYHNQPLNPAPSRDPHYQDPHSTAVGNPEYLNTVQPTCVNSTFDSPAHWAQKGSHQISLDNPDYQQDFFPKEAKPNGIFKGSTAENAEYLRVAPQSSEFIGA
Sequence of EGFR wildtype (WT) (P00533 25-1210): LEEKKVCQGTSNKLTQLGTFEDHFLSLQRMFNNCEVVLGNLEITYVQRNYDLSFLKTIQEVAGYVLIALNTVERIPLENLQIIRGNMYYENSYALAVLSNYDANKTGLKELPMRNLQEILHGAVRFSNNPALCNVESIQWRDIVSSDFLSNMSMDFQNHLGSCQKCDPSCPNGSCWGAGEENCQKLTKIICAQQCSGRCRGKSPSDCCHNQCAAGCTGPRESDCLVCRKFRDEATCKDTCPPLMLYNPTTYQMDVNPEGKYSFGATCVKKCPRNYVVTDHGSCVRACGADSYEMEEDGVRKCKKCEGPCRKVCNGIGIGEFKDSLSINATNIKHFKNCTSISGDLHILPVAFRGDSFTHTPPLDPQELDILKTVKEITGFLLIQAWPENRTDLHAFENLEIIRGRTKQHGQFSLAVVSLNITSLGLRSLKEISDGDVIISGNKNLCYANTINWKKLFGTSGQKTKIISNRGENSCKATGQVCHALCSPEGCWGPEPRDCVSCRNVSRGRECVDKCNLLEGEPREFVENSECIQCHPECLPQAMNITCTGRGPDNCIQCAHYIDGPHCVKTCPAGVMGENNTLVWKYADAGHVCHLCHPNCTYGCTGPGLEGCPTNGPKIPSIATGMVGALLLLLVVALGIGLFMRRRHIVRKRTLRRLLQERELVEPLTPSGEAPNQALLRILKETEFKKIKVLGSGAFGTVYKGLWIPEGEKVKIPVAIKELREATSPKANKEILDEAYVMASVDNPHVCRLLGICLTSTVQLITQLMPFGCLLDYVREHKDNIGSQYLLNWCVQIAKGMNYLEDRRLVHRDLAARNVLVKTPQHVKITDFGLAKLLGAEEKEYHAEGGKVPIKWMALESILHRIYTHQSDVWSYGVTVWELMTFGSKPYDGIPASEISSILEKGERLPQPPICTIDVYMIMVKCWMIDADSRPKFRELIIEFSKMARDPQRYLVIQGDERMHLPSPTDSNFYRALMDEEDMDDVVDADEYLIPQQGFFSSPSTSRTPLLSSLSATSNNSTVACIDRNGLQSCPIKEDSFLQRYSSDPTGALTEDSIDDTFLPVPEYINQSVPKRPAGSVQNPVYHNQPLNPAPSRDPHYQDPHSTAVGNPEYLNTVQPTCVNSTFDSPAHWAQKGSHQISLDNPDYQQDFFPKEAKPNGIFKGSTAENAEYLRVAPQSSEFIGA

Regarding `CNCC1(C)CCN(c2cc(Nc3ccnc(-c4cnn(S(=O)(=O)C5CC5)c4)n3)ncc2C#Cc2cnn(C)c2)CC1` [Example 146, 2-(1-(Cyclopropylsulfonyl)-1H-pyrazol-4-yl)-N-(5-((1-methyl-1H-pyrazol-4-yl)ethynyl)-4-(4-methyl-4-((methylamino)methyl)piperidin-1-yl)pyridin-2-yl)pyrimidin-4-amine], the IC50 against EGFR L858R/T790M/C797S (setting [1]) is 0.1 nM; at EGFR L858R/T790M/C797S (setting [2]) it was 0.04 nM; against EGFR Del19/T790M/C797S (setting [3]), 0.2 nM; on EGFR Del19/T790M/C797S (setting [4]), 0.1 nM; against EGFR Del19/C797S (setting [5]), 0.5 nM; at EGFR Del19/C797S (setting [6]) it was 0.2 nM. Further, the IC50 worked out at 348 nM at EGFR wildtype (WT) (IC50 WT (nM), 100 μM ATP); 0.8 nM at EGFR wildtype (WT) (setting [7]); 1.5 nM on EGFR L858R/C797S (setting [8]); 0.3 nM at EGFR L858R/C797S (setting [9]).

In the case of `CC(=O)N1CCC(n2cc(C#Cc3cnc(Nc4ccnc(-c5cnn(S(=O)(=O)C6CC6)c5)n4)cc3N3CCC(F)(CO)CC3)cn2)CC1` [Example 111, 1-(4-(4-((6-((2-(1-(Cyclopropylsulfonyl)-1H-pyrazol-4-yl)pyrimidin-4-yl)amino)-4-(4-fluoro-4-(hydroxymethyl)piperidin-1-yl)pyridin-3-yl)ethynyl)-1H-pyrazol-1-yl)piperidin-1-yl)ethan-1-one], the IC50 on EGFR L858R/T790M/C797S (setting [1]) amounted to 1.3 nM; on EGFR L858R/T790M/C797S (setting [2]) it was 0.5 nM; against EGFR Del19/T790M/C797S (setting [3]), 0.9 nM; on EGFR Del19/T790M/C797S (setting [4]), 0.8 nM; on EGFR Del19/C797S (setting [5]) it was 2 nM; at EGFR Del19/C797S (setting [6]) it was 2 nM. In addition, the IC50 on EGFR wildtype (WT) (IC50 WT (nM), 100 μM ATP) is 4380 nM; at EGFR wildtype (WT) (setting [7]), 6 nM; against EGFR L858R/C797S (setting [8]) it was 4.7 nM; on EGFR L858R/C797S (setting [9]), 1.2 nM.

For the molecule `Cn1cc(C#Cc2cnc(Nc3ccnc(-c4cnn(S(=O)(=O)C5CC5)c4)n3)cc2N[C@H]2CC[C@@H](O)CC2)cn1` [Example 41, (1s, 4s)-4-((2-((2-(1-(Cyclopropylsulfonyl)-1H-pyrazol-4-yl)pyrimidin-4-yl)amino)-5-((1-methyl-1H-pyrazol-4-yl)ethynyl)pyridin-4-yl)amino)cyclohexan-1-ol], the IC50 against EGFR L858R/T790M/C797S (setting [1]) was 0.8 nM; at EGFR L858R/T790M/C797S (setting [2]), 0.2 nM; against EGFR Del19/T790M/C797S (setting [3]), 0.6 nM; on EGFR Del19/T790M/C797S (setting [4]), 0.5 nM; against EGFR Del19/C797S (setting [5]), 2.8 nM; at EGFR Del19/C797S (setting [6]) it was 1.3 nM. The IC50 is above 10000 nM on EGFR wildtype (WT) (IC50 WT (nM), 100 μM ATP); 23.8 nM on EGFR wildtype (WT) (setting [7]); 10 nM against EGFR L858R/C797S (setting [8]); 1.5 nM on EGFR L858R/C797S (setting [9]).

With `CN(C)CC1(C)CCN(c2cc(Nc3ccnc(-c4cnn(S(=O)(=O)C5CC5)c4)n3)ncc2C#CC2CCO[C@H]2C(F)(F)F)CC1` (stereo partly drawn) [Example 418, 2-(1-(Cyclopropylsulfonyl)-1H-pyrazol-4-yl)-N-(4-(4-((dimethylamino)methyl)-4-methylpiperidin-1-yl)-5-(((2R)-2-(trifluoromethyl)tetrahydrofuran-3-yl)ethynyl)pyridin-2-yl)pyrimidin-4-amine], the IC50 on EGFR L858R/T790M/C797S (setting [1]) was 2.3 nM; on EGFR Del19/T790M/C797S (setting [3]) it was 1.1 nM; against EGFR Del19/C797S (setting [5]) it was 10.1 nM; against EGFR wildtype (WT) (IC50 WT (nM), 100 μM ATP), above 10000 nM; against EGFR L858R/C797S (setting [8]) it was 235 nM.

On to `CC1(O)CCN(c2cc(Nc3ccnc(-c4cnn(S(=O)(=O)C5CC5)c4)n3)ncc2C#CC2CCN(C(=O)C(F)(F)F)C2)CC1` (centres unmarked) [Example 410, 1-(3-((6-((2-(1-(Cyclopropylsulfonyl)-1H-pyrazol-4-yl)pyrimidin-4-yl)amino)-4-(4-hydroxy-4-methylpiperidin-1-yl)pyridin-3-yl)ethynyl)pyrrolidin-1-yl)-2,2,2-trifluoroethan-1-one], for which the IC50 against EGFR L858R/T790M/C797S (setting [1]) came out at 0.6 nM; against EGFR Del19/T790M/C797S (setting [3]) it was 0.2 nM; at EGFR Del19/C797S (setting [5]), 3.1 nM; at EGFR wildtype (WT) (IC50 WT (nM), 100 μM ATP), 7420 nM; at EGFR L858R/C797S (setting [8]), 29.4 nM.

Consider `CN(C)CCn1cc(C#Cc2cnc(Nc3ccnc(-c4cnn(S(=O)(=O)C5CC5)c4)n3)cc2N2CCC(C)(CO)CC2)cn1` [Example 116, (1-(2-((2-(1-(Cyclopropylsulfonyl)-1H-pyrazol-4-yl)pyrimidin-4-yl)amino)-5-((1-(2-(dimethylamino)ethyl)-1H-pyrazol-4-yl)ethynyl)pyridin-4-yl)-4-methylpiperidin-4-yl)methanol], for which the IC50 at EGFR L858R/T790M/C797S (setting [1]) stood at 0.3 nM; at EGFR L858R/T790M/C797S (setting [2]), 0.2 nM; against EGFR Del19/T790M/C797S (setting [3]), 0.4 nM; on EGFR Del19/T790M/C797S (setting [4]), 0.3 nM; against EGFR Del19/C797S (setting [5]), 0.6 nM; on EGFR Del19/C797S (setting [6]), 0.3 nM. For the same molecule, the IC50 stood at 143 nM on EGFR wildtype (WT) (IC50 WT (nM), 100 μM ATP); 1 nM at EGFR wildtype (WT) (setting [7]); 1 nM against EGFR L858R/C797S (setting [8]); 0.2 nM on EGFR L858R/C797S (setting [9]).
